# Where “and” joins values, the source holds several entries; their conditions need not be identical. Equal values may be shown once.
# Legend:
# [1] = test system: T. equi; assay: In vitro growth inhibition, Babesia fluorescent (SYBR Green I) assay; type: cell-based; conditions: 96 h, 4 days culture, mean of triplicate experiments
# Procedure: (§1) Babesia parasite was incubated and maintained at 37 °C in a humidifying chamber under 5% CO2, 5% O2, and 90% N2 atmosphere using a microaerophilic stationary-phase culture for conducting the in vitro experiment. Briefly, Germany strain Babesia divergens was cultured in cattle RBCs in Roswell Park Memorial Institute 1640 (RPMI 1640; Sigma-Aldrich, St. Louis, MO, USA) medium replenished with 40% cattle serum, while culture medium 199 (M199; Sigma-Aldrich) was utilized for the Argentina strain B. bigemina and Texas strain B. bovis, and T. equi USDA strain cultured in cattle RBCs supplemented with 40% cattle serum and horse RBCs maintained in hypoxanthine (MP Biomedicals, Santa Ana, CA, USA; final concentration 13.6 μg/mL) and 40% horse serum, respectively. GIT medium complemented with 40% horse serum was used as a growth medium for the USDA strain of B. caballi cultured in horse RBCs. To ensure free-bacterial contamination, amphotericin B (0.15 μg/mL) (Sigma-Aldrich), streptomycin (60 U/mL) and penicillin G (60 U/mL) were added to all medium.
# (§2) The Babesia fluorescent assay was carried out on the in vitro culture as previously reported elsewhere to assess the growth of the inhibitory effectiveness of ATR and the combination treatment with DA, CF, and AV. Briefly, in three separate trials, using two-fold dilution, different concentrations of ATR, DA, CF, and AV were prepared in the culture medium and added in 96-well plates in triplicate with 1% parasitemia for T. equi, B. divergens and B. caballi at 5% HCT, while for B. bigemina and B. bovis using 2.5% HCT. The drug combined efficacy was conducted at the same time with the single-treatment assay in accordance with the Chou–Talalay method. […] On day four of culture, an aliquot (100 µL) of lysis buffer mixed with 0.2μL/mL SG1 was added per well; subsequently, it was covered with aluminum foil to prevent exposure to light. After incubation for 6-h at 37 °C, fluorescence readings were acquired on a spectrofluorimeter (Fluoroskan Ascent, Thermo Fisher Scientific, Oceanside, CA, USA) with a 485 nm excitation wavelength and a 518 nm emission wavelength.
# (§3) The IC50 values of ATR, DA, CF, and AV were established from the in vitro growth inhibition by nonlinear regression curve fit on a GraphPad Prism (GraphPad Software Inc., San Diego, CA, USA). […] The significant variations (p < 0.05) among group mean values on parasitemia and one-way ANOVA Tukey’s test in GraphPad Prism version 5.0 was used to analyze hematology profiles in mice infected with B. microti.
# [2] = test system: B. bovis; assay: as above; type: cell-based; conditions: Bos taurus, 96 h, 4 days culture, mean of triplicate experiments
# Procedure: as §1, §2, §3
# [3] = test system: B. bigemina; assay: as above; type: cell-based; conditions: 96 h, 4 days culture, mean of triplicate experiments
# Procedure: as §1, §2, §3
# [4] = test system: B. caballi; assay: as above; type: cell-based; conditions: Babesia caballi, 96 h, 4 days culture, mean of triplicate experiments
# Procedure: as §1, §2, §3
# [5] = test system: B. divergens; assay: as above; type: cell-based; conditions: 96 h, 4 days culture, mean of triplicate experiments
# Procedure: as §1, §2, §3
# [6] = Hematology parameters (HGB, HCT, RBCs) in B. microti-infected treated mice; type: in vivo, BALB/c mice; design: HGB Mean: unit not given beside the values; RBCs Mean: unit not given here; conditions: DA 25, AV 20, ATR 25, ATR 12.5+DA 12.5, ATR 12.5+AV 10 mg/kg BW, days 4-8 p.i.
# [7] = test system: HFFs; assay: Cytotoxicity assay (CCK-8 cell viability); type: cell-based, human
# Procedure: (§4) Cultures of human foreskin fibroblast (HFF; HFF-1 ATCC® SCRC-1041™), Madin–Darby bovine kidney (MDBK; ECACC) and mouse embryonic fibroblast (NIH/3T3; ATCC® CRL-1658™) cells were retrieved from −80 °C stock and cultured continuously at 37 °C under atmosphere 5% CO2 in our laboratory. The NIH/3T3 and HFFs cells were maintained in Dulbecco Modified Eagle’s Medium (DMEM; Gibco, Grand Island, NY, USA), while MDBK cell line grown in Minimum Essential Medium Eagle (MEM; Gibco). Each medium was treated with 0.5% penicillin/streptomycin (Gibco), 10% inactivated fetal bovine serum and 2 mM glutamine. Every 72 to 96 h, the medium was replaced, and once 80% confluence was reached, the cell collection was performed by sub-culture protocol. To confirm the absence of mycoplasma contamination, 4,6-diamidino-2-phenylindole dihydrochloride stain (Sigma-Aldrich) was used.
# (§5) The cell viability test was conducted in a 96-well plate as described elsewhere. Briefly, an aliquot of (100 µL) cells was implanted at a concentration of 5 × 10^4 cells/mL in DMEM or MEM with fetal bovine serum and incubated overnight under atmosphere 5% CO2 at 37 °C for attachment. Using two-fold dilutions, aliquots (10 µL) of drugs were added in triplicate per well to attain final concentrations of 50 to 1000 µM and further incubated for 24 h. The positive control wells containing cells mixed with the medium in 0.4% DMSO, whereas the negative control wells containing culture medium only. After a 24-h incubation, Cell Counting Kits-8 (CCK-8, 10 µL) was added to each well and then plate incubation was conducted for an additional 3 h and a microplate reader was used to assess the absorbance at 450 nm.
# [8] = test system: MDBK cells; assay: Cytotoxicity assay (CCK-8 cell viability); type: cell-based, bovine
# Procedure: as §4, §5
smiles,measurement,setting,value
"COC(=O)c1c(C)cc(OC(=O)c2c(C)cc(O)c(C=O)c2O)c(C)c1O [ATR, Atranorin]",IC50,[1],71.3 ± 2.7 µM
same,IC50,[2],98.4 ± 4.2 µM
same,IC50,[3],64.5 ± 3.9 µM
same,IC50,[4],46.6 ± 2.5 µM
same,IC50,[5],45.2 ± 5.9 µM
same,HCT Mean,[6]; day 0,46.575%
same,HGB Mean,[6]; day 0,14.8
same,RBCs Mean,[6]; day 0,942.625
same,HCT Mean,[6]; day 4,44.4%
same,HGB Mean,[6]; day 4,13.64
same,RBCs Mean,[6]; day 4,928
same,HCT Mean,[6]; day 8,38%
same,HGB Mean,[6]; day 8,10
same,RBCs Mean,[6]; day 8,610
same,HCT Mean,[6]; day 12,28.925%
same,HGB Mean,[6]; day 12,10.05
same,RBCs Mean,[6]; day 12,557
same,HCT Mean,[6]; day 16,36.65%
same,HGB Mean,[6]; day 16,11.425
same,RBCs Mean,[6]; day 16,637.75
same,HCT Mean,[6]; day 20,39.5%
same,HGB Mean,[6]; day 20,11.95
same,RBCs Mean,[6]; day 20,679.75
same,HCT Mean,[6]; day 24,40.2%
same,HGB Mean,[6]; day 24,12.725
same,RBCs Mean,[6]; day 24,830
same,HCT Mean,[6]; day 28,43.2%
same,HGB Mean,[6]; day 28,13.2
same,RBCs Mean,[6]; day 28,898
same,HCT Mean,[6]; day 32,45.2%
same,HGB Mean,[6]; day 32,14.8
same,RBCs Mean,[6]; day 32,942.625
same,HCT Mean,[6]; day 36,47.2%
same,HGB Mean,[6]; day 36,14.99
same,RBCs Mean,[6]; day 36,982.625
same,Selective Index HFFs,[7]; EC50 HFFs / IC50 B. bigemina,11.6
same,Selective Index HFFs,[7]; EC50 HFFs / IC50 B. bovis,7.6
same,Selective Index HFFs,[7]; EC50 HFFs / IC50 B. caballi,16.1
same,Selective Index HFFs,[7]; EC50 HFFs / IC50 B. divergens,16.6
same,Selective Index HFFs,[7]; EC50 HFFs / IC50 T. equi,10.6
same,EC50,"[7]; Homo sapiens, HFFs, 24 h, CCK-8",750 ± 15 µM
same,EC50,"[8]; Bos taurus, MDBK cells, 24 h, CCK-8",775 ± 16 µM
same,Selective Index MDBK,[8]; EC50 MDBK / IC50 B. bigemina,12.0
same,Selective Index MDBK,[8]; EC50 MDBK / IC50 B. bovis,7.9
same,Selective Index MDBK,[8]; EC50 MDBK / IC50 B. caballi,16.6
same,Selective Index MDBK,[8]; EC50 MDBK / IC50 B. divergens,17.1
same,Selective Index MDBK,[8]; EC50 MDBK / IC50 T. equi,10.6 and 10.9
